The data set can be described thus: method code SF-AS, from PMID: 7324974. The following applies: pH 5.0.

Compound `CCCC1CCCc2ncc(C(=O)OC)c(=O)n21` (centres undefined) showed a logD of 1.14.
Consider `CC1CCCC2NC=C(C(N)=O)C(=O)N12` (centres undefined), for which the logD stood at 0.51.
In the case of `CCCCC1CCCc2ncc(C(=O)OC)c(=O)n21` (centres undefined) it was 1.77.
`CCc1cccc2nc(C)cc(=O)n12`: the logD was 1.63.
Next, `CCOC(=O)c1cnc2c(C)cccn2c1=O`: 1.16; `CCOC(=O)C1=CN(C)C2CCCC(C)N2C1=O` (centres undefined): 0.45; `COC(=O)c1cnc2n(c1=O)CCCC2`: -0.25.
`CCOC(=O)c1cnc2ccccn2c1=O` gave a logD of 0.25.
For the compound `CCOC(=O)c1cnc2n(c1=O)CCCC2`, the logD was 0.15.
In the case of `CCc1cc(=O)n2c(C)cccc2n1` it was 1.59.
`CCOC(=O)c1cnc2n(c1=O)C(C)CCC2` (centres undefined) yielded a pH-dependent lipophilicity (logD) of 0.62.
Next, `Cc1cnc2ccccn2c1=O`: 0.77.
`CCOC(=O)c1cnc2n(c1=O)CC(C)CC2` (centres undefined): the logD turned out to be 0.71.
In the case of `CCOC(=O)c1cnc2cccc(C)n2c1=O`, the logD amounted to 0.96.
Next, `CCOC(=O)C1=CNC2CCCC(C)N2C1=O` (centres undefined): 0.79; `COC(=O)c1cnc2n(c1=O)C(C(C)C)CCC2` (centres undefined): 0.99; `COC(=O)c1cnc2n(c1=O)C(C)CCC2` (centres undefined): 0.16.
Next, `Cc1cc(=O)n2c(C)cccc2n1`: 1.05; `CCOC(=O)c1cnc2n(c1=O)CCC(C)C2` (centres undefined): 0.66.
The compound `CCOC(=O)C1=CNC2CCCCN2C1=O` (centres undefined) had a logD of 0.57.
Regarding `CCc1nc2cccc(C)n2c(=O)c1C`, the logD was 1.87.
In the case of `CC1CCCC2N(C)C=C(C(N)=O)C(=O)N12` (centres undefined) it was 0.22; in that of `CCN1C=C(C(N)=O)C(=O)N2C(C)CCCC12` (centres undefined), 0.6; in that of `CCOC(=O)c1cnc2ccc(C)cn2c1=O`, 0.9.
Next, `CC1CCC=C2N(C)C=C(C(N)=O)C(=O)N21` (centres undefined): 0.12; `Cc1cccc2ncc(-c3ccccc3)c(=O)n12`: 2.59.
In the case of `CCOC(=O)c1cnc2cc(C)ccn2c1=O` it was 0.87.
Regarding `CC1CCCc2ncc(C(N)=O)c(=O)n21` (centres undefined), the logD came out at 0.04.
In the case of `CCCc1nc2cccc(C)n2c(=O)c1CC` it was 2.37.

Values taken from the SangsterLogP compilation.
